Measured values: patent publication US4774248A, “Methods of treating depression and depressive states using 5-phenyl-1,4,5,6-tetrahydropyrimidine derivatives” (priority 1985, dated 1988)
“Also recorded” adds a separate entry of the source.

Experiments:
mice [1] = assay: Motility reduced by habituation to the enclosure; format: in vivo; details: i.p.
Experimental: (§1) The results of toxicological and neuropsychopharmacological tests which were carried out with the products according to the invention have been summarized below. In these tests, solutions of the said products in distilled water were administered intraperitoneally in a volume of 20 ml/kg to male mice and in a volume of 5 ml/kg to male rats.
After they have stayed in the actimeters for 18 hours, the mice (6 per dose, 12 control animals) receive CRL 41 378. They are immediately returned to their respective enclosures and, half an hour later, their motility is recorded for 30 minutes.

[2] = test system: hypothermia and ptosis induced by reserpine; assay: Interaction with reserpine; format: in vivo; details: mice, i.p.
Method in brief: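 Reserpine 2.5 mg/kg i.p. given to male mice in groups of 12; test compound dissolved in distilled water and given i.p. (20 ml/kg) four hours later.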

mice [3] = assay: Asphyxiant anoxia caused by gallamine triiodoethylate; format: in vivo; details: i.p., gallamine triiodoethylate 32 mg/kg
Experimental: as §1
Groups of 10 mice receive CRL 41 378 30 minutes before the intraperitoneal administration of 32 mg/kg of gallamine triiodoethylate (reference curarizing agent).

[4] = test system: depressions and depressive states; assay: Clinical trials in depression and depressive states; format: in vivo, human; details: daily oral administration to adults
Experimental: The clinical trials which have been undertaken have made it possible to determine that the daily dose to be administered orally to adults, in the treatment of depressions and depressive states, is generally between 3 and 120 mg for the products of the formulae Ia and Ib according to the invention.

anesthetized dogs = assay: Cardiovascular study in anesthetized dogs; format: in vivo; details: route not specified
[5] = test system: hypothermia, trembling and peripheral cholinergic symptoms induced by oxotremorine; assay: Interaction with oxotremorine; format: in vivo; details: mice, i.p.
Method in brief: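 Male mice, groups of 6, given the compound intraperitoneally in distilled water (20 ml/kg) 0.5 h before 0.5 mg/kg oxotremorine i.p. Hypothermia, trembling and peripheral cholinergic symptoms were assessed.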

pregnant rabbits = assay: Teratogenic effects on pregnant rabbits; format: in vivo
[6] = test system: central nervous system (CNS); assay: Neuropsychopharmacological profile (conclusions of the tests); format: in vivo, mice and rats
Experimental: as §1

[7] = test system: trembling and head twitches induced by 5-hydroxytryptophan (5-HTP); assay: Interaction with 5-hydroxytryptophan in association with an MAOI (nialamide); format: in vivo, male mice
Method in brief: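 Male mice (groups of 10) got nialamide 20 mg/kg intragastric at T-18 h, test product i.p. in water at T-0.5 h, then (±)-5-HTP 20 mg/kg i.p. at T. Generalized trembling, partial trembling and head twitches scored yes/no over 2 h.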

mice [8] = assay: Intergroup aggressiveness; format: in vivo
Method in brief: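 Male mice housed 3 weeks per group in cage halves split by an opaque partition; groups of 3 given CRL 41 378 i.p. in distilled water.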

mice [9] = assay: Spontaneous motility (actimeter); format: in vivo; details: i.p., hydrochloride
Experimental: as §1
0.5 h after they have received CRL 41 378, the mice (6 per dose, 12 control animals) are placed in an actimeter, where their motility is recorded for 30 minutes.

[10] = test system: hypothermia induced by apomorphine; assay: Interaction with apomorphine by gastric administration; format: in vivo; details: Mus musculus, male mice, apomorphine 16 mg/kg s.c., read-out: dose as from which the hypothermia induced by apomorphine is opposed
Experimental: Each test product is administered gastrically to male mice, in a volume of 20 ml/kg, 0.50 h before the subcutaneous injection of 16 mg/kg of apomorphine.

rats = assay: Overall behavior and reactivities in rats; format: in vivo; details: i.p.
Method in brief: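 Male mice (20 ml/kg) and male rats (5 ml/kg) dosed intraperitoneally with compound in distilled water.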

[11] = test system: hypothermia, righting behavior and stereotypies induced by apomorphine; assay: Interaction with apomorphine in mice; format: in vivo
Method in brief: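 Male mice, groups of 6, given test compound intraperitoneally in distilled water (20 ml/kg) 30 min before subcutaneous apomorphine at 1 or 16 mg/kg. Hypothermia, righting behaviour and stereotypies scored.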

mice [12] = assay: Traction; format: in vivo; details: i.p.
Experimental: as §1
The test is performed on groups of 10 mice 30 minutes after the administration of CRL 41 378.

[13] = reserpine 2.5 mg/kg, hydrochloride
[14] = i.p., nialamide + (±)-5-HTP, male mice

## CC(=O)N1C=NCC(c2ccccc2)C1.Cl (stereo not shown) [CRL 41 378, 1-acetyl-5-phenyl-1,4,5,6-tetrahydropyrimidine hydrochloride]
Mice [1]
  resumption in the motor activity of mice accustomed to their enclosure: does not cause a resumption in the motor activity of mice accustomed to their enclosure
[2]; Mus musculus, ip, 24 h after administration, read-out: dose as from which the ptosis induced by reserpine is moderately decreased
  minimal effective dose: ≥ 0.5 mg/kg
[2]; [13]
  action on hypothermia induced by reserpine: at doses of 0.5 mg/kg to 4 mg/kg, CRL 41 378 antagonizes the hypothermia induced by reserpine; also recorded: this effect tends to decrease to nothing at a dose of 16 mg/kg; also recorded: the highest dose used (64 mg/kg) being inactive towards the hypothermia induced by reserpine; also recorded: antagonism of the hypothermia induced by apomorphine, reserpine and oxotremorine in mice
  action on ptosis induced by reserpine: moderate decrease in the ptosis induced by reserpine 24 h after administration; also recorded: absence of distinct antagonism of the ptosis induced by reserpine
Mice [3]
  time taken for convulsions and death / lethal effects of gallamine triiodoethylate: at the highest dose used (64 mg/kg), CRL 41 378 causes a moderate decrease in the time taken for convulsions and death to occur
[4]
  results in human therapy (depression): excellent results
Anesthetized dogs
  blood flows through the femoral and vertebral arteries: decreases the blood flows through the femoral and vertebral arteries
[5]; Mus musculus, ip, read-out: dose as from which the hypothermia induced by oxotremorine is antagonized
  minimal effective dose: ≥ 0.5 mg/kg
[5]; oxotremorine 0.5 mg/kg
  action on signs of peripheral cholinergic stimulation induced by oxotremorine: practically no modification of the signs of peripheral cholinergic stimulation induced by oxotremorine
  action on trembling induced by oxotremorine: does not modify the intensity of the trembling induced by oxotremorine
[5]; oxotremorine 0.5 mg/kg, hydrochloride
  action on hypothermia induced by oxotremorine: very intense at doses of 2 and 4 mg/kg and is then less significant for the highest doses used (16 and 64 mg/kg); also recorded: antagonism of the hypothermia induced by apomorphine, reserpine and oxotremorine in mice
Pregnant rabbits
  teratogenic effects: devoid of harmful teratogenic effects on pregnant rabbits
[6]; electric shock, hypobaric hypoxia, asphyxiant anoxia
  lethal effects of the various convulsants studied: aggravates the lethal effects of the various convulsants studied (electric shock, hypobaric hypoxia, asphyxiant anoxia)
[6]; i.p.
  antidepressant effects: antidepressant effects appearing as from the lowest doses
  peripheral anticholinergic activity: absence of peripheral anticholinergic activity
  stimulant effects: absence of stimulant effects on the CNS
[6]; i.p., hydrochloride
  peripheral α-adrenergic stimulant effects: peripheral α-adrenergic stimulant effects appearing at high doses; also recorded: an α1 stimulation component represented by salivation and mydriasis (in mice and rats) and piloerection (in rats); also recorded: moderate hyperthermia in mice; also recorded: peripheral vasodilation (tail, paws and snout) in mice and rats
  sedative effects: sedative effects appearing at high doses; also recorded: sedation in mice
[6]; summary, hydrochloride
  overall neuropsychopharmacological profile: an antidepressant exhibiting sedative effects at high doses; also recorded: resembles β-adrenergic stimulants
[7]; 5-HTP + MAOI
  analogy with β-adrenergic stimulants in the 5-HTP procedure: more closely resembles fenoterol
[7]; higher doses, 5-HTP + MAOI, male mice
  intensity of potentiation of 5-HTP effects: the potentiation being very intense as from a dose of 16 mg/kg
[7]; [14]
  head twitches: moderately potentiates the head twitches
  partial trembling: distinctly potentiates the partial trembling
Mice [8]; Mus musculus, ip, read-out: dose as from which the intergroup aggressiveness is decreased
  minimal effective dose: ≥ 0.5 mg/kg
Mice [8]; mice, i.p., hydrochloride
  intergroup aggressiveness (number of fights): decreases the intergroup aggressiveness as from a dose of 0.5 mg/kg but especially at doses of 2 mg/kg, 4 mg/kg and 16 mg/kg; also recorded: a decrease in the intergroup aggressiveness of mice (at doses which do not decrease the spontaneous motor activity)
Mice [9]
  spontaneous motor activity: at a dose of 16 mg/kg and especially at a dose of 64 mg/kg, CRL 41 378 decreases the spontaneous motor activity of the mice; also recorded: a substantial decrease in the spontaneous motor activity of mice
[10]
  minimal effective dose: ≥ 0.5 mg/kg
rats; 0.5 mg/kg
  overall behavior and reactivities: moderate mydriasis for 2 h, the maximum intensity being reached 0.5 h after administration
rats; 2 mg/kg
  overall behavior and reactivities: mydriasis for 3 h, the maximum intensity also being reached 0.5 h after administration
rats; 32 mg/kg, hydrochloride
  overall behavior and reactivities: a decrease in the breathing rate and muscle tonus for 1 h; also recorded: exophthalmos for 1 h; also recorded: piloerection for 2 h; also recorded: salivation appearing 0.5 h after administration; also recorded: vasodilation of the paws and snout for 0.5 h; also recorded: mydriasis for 2 h, the maximum intensity being reached 0.5 h after administration
[11]; Mus musculus, ip, read-out: dose as from which the hypothermia induced by apomorphine is antagonized
  minimal effective dose: ≥ 0.5 mg/kg
[11]; i.p.
  action on righting behavior and stereotypies due to apomorphine: practically no modification of the righting behavior and stereotypies due to apomorphine
[11]; i.p., hydrochloride
  action on hypothermia induced by apomorphine: antagonizes the hypothermia induced by apomorphine; also recorded: antagonism of the hypothermia induced by apomorphine, reserpine and oxotremorine in mice
Mice [12]
  motor incoordination / incapacity: does not cause motor incoordination
